This is an account of results in publication PMC12388496, “Discovery of (E)-1,3-Diphenyl-2-Propen-1-One Derivatives as Potent and Orally Active NLRP3 Inflammasome Inhibitors for Colitis” (Molecules, 2025).

A short description of series [1]: MTT assay, HepaRG cytotoxicity. In kind it is cell-based. As to conditions: human, HepaRG cells, n = 3. The protocol: HepaRG cells in the logarithmic growth phase (10^5 cells/mL), inoculate them into a 96-well plate, and culture overnight in a 37 °C, 5% CO2 incubator. Add compounds at different concentrations and continue culturing for 24 h. Add 20 μL of MTT solution, incubate for 4 h, discard the supernatant, and add DMSO to dissolve.
On the technique in general: Tetrazolium assays rely on reduction of a dye to a coloured formazan, in cell work by metabolically active cells.

Series [2] concerns NLRP3 inflammasome. Kind of series: NLRP3 inflammasome activation by ATP, MSU and Nigericin in BMDMs (ELISA of IL-1β). In kind it is cell-based, mouse. The note with it: F14 10 μM; LPS-primed BMDMs stimulated with ATP, MSU or Nigericin. The text has this:
The NLRP3 inflammasome can be activated by various stimuli, such as microbial toxins and urate crystals. This process plays a central role in the pathogenesis of many inflammatory diseases. To assess whether F14 exerts a broad-spectrum inhibitory effect on NLRP3 inflammasome activation, we used three different activators—ATP, MSU, and Nigericin to stimulate BMDMs. […] Among the inflammasome family, NLRC4 and AIM2 are also protein complexes involved in the innate immune response, playing key roles in inflammatory regulation during infection and tissue damage. Poly (dA:dT) was used to induce AIM2 activation, while S.typhi was employed to stimulate NLRC4 activation. […].
The LPS concentration was 200 ng/mL to pretreat BMDM cells for 3 h, then F14 (10 μM) was added to treat the cells for 30 min, and then each inducer—Nigericin (10 μM, 0.5 h), ATP (2.5 mM, 0.5 h), MSU (150 μg/mL, 4 h), S.typhi (4 h), and poly-(dA:dT) (0.5 μg/mL, 4 h)—were added for stimulation. (A) F14 has a broad-spectrum inhibitory effect on NLRP3 inflammasome activation. (B) F14 has a specific inhibitory effect on NLRP3 inflammasome activation. Data are presented as the mean ± SEM (n = 3). *** p < 0.001 vs. the model group. NS, not significant.
On the technique in general: An ELISA detects its analyte on a solid surface through an enzyme-linked reagent.

Series [3] concerns NLRP3 inflammasome. Description: Western blot of NLRP3 inflammasome proteins in BMDMs. It counts as cell-based, mouse. The note with it: BMDM, LPS and Nigericin. The protocol: To further investigate the potential molecular mechanisms of compound F14, an in vitro inflammation model was constructed using BMDM cells.
Inoculate BMDMs cells into a 6-well plate with 4-6 × 10^6 cells per well and culture overnight. Pre-treat with LPS (200 ng/mL) for 3 h, then treat with different concentrations of compound F14 for 30 min, and add Nigericin (10 µM) to activate BMDMs for 30 min. Add RIPA (Beyotime Biotechnology, Shanghai, China) for lysis. Select SDS-PAGE with different concentrations for electrophoresis, and then transfer to PVDF membrane (Millipore Immobilon-P, Burlington, MA, USA). Incubate the antibody imprint overnight at 4°C, and then incubate with HRP conjugated secondary antibody for 1 h.

The test system of another series is ASC. Description: ASC spot immunofluorescence experiment in BMDM cells. The note with it: LPS and Nigericin, concentration-dependent. It counts as cell-based, mouse. An excerpt:
The formation of ASC oligomers is a key hallmark of inflammasome activation. ASC forms interactions with other ASC molecules through its pyrin domain (PYD), which leads to the aggregation of these molecules, resulting in the formation of a speck-like structure (ASC specks). This process involves not only the aggregation of proteins but also the assembly of a highly ordered structure in the cytoplasm. Inhibition of ASC oligomerization can effectively block NLRP3 inflammasome activation. […] Therefore, we hypothesize that F14 may inhibit caspase-1 activation by interfering with ASC oligomerization or ASC speck formation. To validate this hypothesis, we conducted immunofluorescence experiments in BMDM cells under inflammatory conditions.
Add the BMDM cells into a 24-well plate with a cell density of 3 × 10^5 cells per well. Add LPS (200 ng/mL) to all wells except the blank wells to stimulate the cells for 3 h, then add the F14 to the experimental group and incubate for 1 h, followed by Nigericin stimulation for 30 min. Add 500 μL of FAA fixation solution to each well, incubate with 1% TritonX-100 solution for 15 min, then block with 5% BSA solution. Add an appropriate amount of primary antibody and incubate overnight, wash, then add the secondary antibody for incubation. […]

Bounds are passed on as bounds.

Turning to `Cc1ccc(C(=O)/C=C/c2cccc(O)c2)c(C)c1` [Compound F14, (E)-1-(2,4-dimethylphenyl)-3-(3-hydroxyphenyl)propyl-2-en-1-one], the IC50 at 24 h in series [1] is above 50 µM. For the same compound, in the series on NLRP3 inflammasome [2], the “protein expression levels of mature IL-1β (ELISA)” value is recorded as “significantly reduced”. Besides, in the series on NLRP3 inflammasome [3], the “protein expression levels of pro-IL-1β, pro-caspase-1, ASC, NEK7 and NLRP3” value is “no significant effect”; the “protein levels of IL-1β and caspase-1 in the cell supernatant” value is recorded as “concentration-dependent inhibitory effect”. Further, the ASC speckles entry in the series on ASC is reported as “significant reduction”.

The IC50 is the midpoint of a concentration-inhibition curve. High values mean weaker potency, low ones greater potency.
